In brackets after ≈: the same amount, converted by molar mass. Read-outs that look alike come from different tables or passages of the source.
What was measured:
MDRAB [1] = test: MIC determination, microdilution broth method; assay type: cell-based, Acinetobacter baumannii
Method: Determination methods of a Minimal Inhibitory Concentration (MIC) and a Minimum Bactericidal Concentration (MBC) of a test product: the MIC and the MBC of the Pithecellobium clypearia Benth water or ethanol extract to the MDRAB are determined by a microdilution broth method. And it is operated by referring to the microdilution broth method recommended by National Committee for Clinical Laboratory Standards (NCCLS).

MDRAB [2] = test: Checkerboard assay (combined-use MIC, FIC); assay type: cell-based, Acinetobacter baumannii; conditions: for FIC, all strains / MIC50 of the antibiotic after combined use / reduction of the antibiotic's MIC50 vs single use / reduction of the antibiotic's MIC90 vs single use / share of strains with FIC ≤ 0.5: 20 MDRABs; for MIC: Acinetobacter baumannii, read-out: single-use MIC
Method: Test methods of the sensibilization effects of the test product to similar antibiotics: it is operated by referring to a checkerboard assay recommended by NCCLS.
The checkerboard assay is performed in a 96-pore sterile culture plate.
Calculation of a Fractional Inhibitory Concentration (FIC): FIC=S20b combined-use MIC/S20b single-use MIC+antibiotic combined-use MIC/antibiotic single-use MIC. By calculating the FIC, the combined antibacterial interaction between the EA and the antibiotic is evaluated, with synergistic effect for FIC≤0.5, additive effect for 0.5<FIC≤1, indifferent effect for 1<FIC≤2 and antagonistic effect for FIC>2. According to a sterile growth pore, the optimum concentration ratio between the EA and the antibiotic is founded out. At last, the effect of the EA to strengthen the efficacy of the antibiotic is evaluated.

ATCC27853 = test: MIC determination, control strain; assay type: cell-based; conditions: read-out: MIC
Method: Determination methods of a Minimal Inhibitory Concentration (MIC) and a Minimum Bactericidal Concentration (MBC) of a test product: the MIC and the MBC of the Pithecellobium clypearia Benth water or ethanol extract to the MDRAB are determined by a microdilution broth method.

[3] = antibiotic with 60% ethanol extract
[4] = antibiotic with 95% ethanol extract
[5] = antibiotic with EA (10% ethanol extract)
[6] = antibiotic with EA (water extract)

Q: What does the source list for `CN(C)[C@@H]1C(O)=C(C(N)=O)C(=O)[C@@]2(O)C(O)=C3C(=O)c4c(O)cccc4[C@@](C)(O)[C@H]3C[C@@H]12` [TE, Tetracycline]?
A: MIC (MDRAB [1]; Acinetobacter baumannii, strain A4, EA=60% ethanol extract, read-out: MIC): 8 µg/mL (≈ 18 µM); MIC (MDRAB [1]; Acinetobacter baumannii, strain A4, EA=95% ethanol extract, read-out: MIC): 8 µg/mL (≈ 18 µM); MIC (MDRAB [1]; Acinetobacter baumannii, strain A4, single use, EA=10% ethanol extract, read-out: MIC): 8 µg/mL (≈ 18 µM); MIC (MDRAB [1]; Acinetobacter baumannii, strain A4, single use, EA=water extract, read-out: MIC): 8 µg/mL (≈ 18 µM); MIC (MDRAB [1]; Acinetobacter baumannii, strain A5, EA=60% ethanol extract, read-out: MIC): 32 µg/mL (≈ 72 µM); MIC (MDRAB [1]; Acinetobacter baumannii, strain A5, EA=95% ethanol extract, read-out: MIC): 32 µg/mL (≈ 72 µM); MIC (MDRAB [1]; Acinetobacter baumannii, strain A5, single use, EA=10% ethanol extract, read-out: MIC): 32 µg/mL (≈ 72 µM); MIC (MDRAB [1]; Acinetobacter baumannii, strain A5, single use, EA=water extract, read-out: MIC): 32 µg/mL (≈ 72 µM); MIC (MDRAB [1]; strain A15, single use, EA=10% ethanol extract): 1024 µg/mL (≈ 2300 µM); MIC (MDRAB [1]; strain A15, single use, EA=water extract): 1024 µg/mL (≈ 2300 µM); FIC, all strains (MDRAB [2]; [3]): ≤ 1; MIC50 of the antibiotic after combined use (MDRAB [2]; [3]): 32 µg/mL; reduction of the antibiotic's MIC50 vs single use (MDRAB [2]; [3]): 87.5%; reduction of the antibiotic's MIC90 vs single use (MDRAB [2]; [3]): 75%; share of strains with FIC ≤ 0.5 (MDRAB [2]; [3]): 50%; FIC, all strains (MDRAB [2]; [4]): ≤ 1; MIC50 of the antibiotic after combined use (MDRAB [2]; [4]): 32 µg/mL; reduction of the antibiotic's MIC50 vs single use (MDRAB [2]; [4]): 87.5%; reduction of the antibiotic's MIC90 vs single use (MDRAB [2]; [4]): 75%; share of strains with FIC ≤ 0.5 (MDRAB [2]; [4]): 35%; FIC, all strains (MDRAB [2]; [5]): ≤ 1; MIC50 of the antibiotic after combined use (MDRAB [2]; [5]): 64 µg/mL; reduction of the antibiotic's MIC50 vs single use (MDRAB [2]; [5]): 75%; reduction of the antibiotic's MIC90 vs single use (MDRAB [2]; [5]): 50%; share of strains with FIC ≤ 0.5 (MDRAB [2]; [5]): 45%; FIC, all strains (MDRAB [2]; [6]): ≤ 1; MIC50 of the antibiotic after combined use (MDRAB [2]; [6]): 64 µg/mL; reduction of the antibiotic's MIC50 vs single use (MDRAB [2]; [6]): 75%; reduction of the antibiotic's MIC90 vs single use (MDRAB [2]; [6]): 75%; share of strains with FIC ≤ 0.5 (MDRAB [2]; [6]): 35%; MIC (MDRAB [2]; strain A4, EA=60% ethanol extract): 8 µg/mL; MIC (MDRAB [2]; strain A4, EA=95% ethanol extract): 8 µg/mL; MIC (MDRAB [2]; strain A5 (printed AS in tables A43, A45), EA=95% ethanol extract): 32 µg/mL; MIC (MDRAB [2]; strain A5, EA=60% ethanol extract): 32 µg/mL; MIC (MDRAB [2]; strain A15, EA=60% ethanol extract): 1020 µg/mL; MIC (MDRAB [2]; strain A15, EA=95% ethanol extract): 1020 µg/mL; combined-use MIC (MDRAB [2]; strain A1, EA (10% ethanol extract) with TE): 1 µg/mL; combined-use MIC (MDRAB [2]; strain A1, EA (60% ethanol extract) + TE combined): 1 µg/mL; combined-use MIC (MDRAB [2]; strain A1, EA (95% ethanol extract) + TE combined): 1 µg/mL; combined-use MIC (MDRAB [2]; strain A1, EA (water extract) with TE): 1 µg/mL; combined-use MIC (MDRAB [2]; strain A2, EA (10% ethanol extract) with TE): 64 µg/mL; combined-use MIC (MDRAB [2]; strain A2, EA (60% ethanol extract) + TE combined): 64 µg/mL; combined-use MIC (MDRAB [2]; strain A2, EA (95% ethanol extract) + TE combined): 64 µg/mL; combined-use MIC (MDRAB [2]; strain A3, EA (10% ethanol extract) with TE): 64 µg/mL; combined-use MIC (MDRAB [2]; strain A3, EA (60% ethanol extract) + TE combined): 32 µg/mL; combined-use MIC (MDRAB [2]; strain A3, EA (95% ethanol extract) + TE combined): 32 µg/mL; combined-use MIC (MDRAB [2]; strain A3, EA (water extract) with TE): 64 µg/mL; combined-use MIC (MDRAB [2]; strain A4, EA (10% ethanol extract) with TE): 2 µg/mL; combined-use MIC (MDRAB [2]; strain A4, EA (60% ethanol extract) + TE combined): 1 µg/mL; combined-use MIC (MDRAB [2]; strain A4, EA (95% ethanol extract) + TE combined): 1 µg/mL; combined-use MIC (MDRAB [2]; strain A4, EA (water extract) with TE): 2 µg/mL; combined-use MIC (MDRAB [2]; strain A5, EA (10% ethanol extract) with TE): 4 µg/mL; combined-use MIC (MDRAB [2]; strain A5, EA (60% ethanol extract) + TE combined): 8 µg/mL; combined-use MIC (MDRAB [2]; strain A5, EA (95% ethanol extract) + TE combined): 8 µg/mL; combined-use MIC (MDRAB [2]; strain A5, EA (water extract) with TE): 4 µg/mL; combined-use MIC (MDRAB [2]; strain A6, EA (10% ethanol extract) with TE): 64 µg/mL; combined-use MIC (MDRAB [2]; strain A6, EA (water extract) with TE): 64 µg/mL; combined-use MIC (MDRAB [2]; strain A8, EA (10% ethanol extract) with TE): 64 µg/mL; combined-use MIC (MDRAB [2]; strain A8, EA (60% ethanol extract) + TE combined): 32 µg/mL; combined-use MIC (MDRAB [2]; strain A8, EA (95% ethanol extract) + TE combined): 32 µg/mL; combined-use MIC (MDRAB [2]; strain A9, EA (10% ethanol extract) with TE): 32 µg/mL; combined-use MIC (MDRAB [2]; strain A9, EA (60% ethanol extract) + TE combined): 32 µg/mL; combined-use MIC (MDRAB [2]; strain A9, EA (95% ethanol extract) + TE combined): 32 µg/mL; combined-use MIC (MDRAB [2]; strain A9, EA (water extract) with TE): 64 µg/mL; combined-use MIC (MDRAB [2]; strain A10, EA (10% ethanol extract) with TE): 32 µg/mL; combined-use MIC (MDRAB [2]; strain A10, EA (60% ethanol extract) + TE combined): 32 µg/mL; combined-use MIC (MDRAB [2]; strain A10, EA (95% ethanol extract) + TE combined): 32 µg/mL; combined-use MIC (MDRAB [2]; strain A10, EA (water extract) with TE): 64 µg/mL; combined-use MIC (MDRAB [2]; strain A11, EA (10% ethanol extract) with TE): 64 µg/mL; combined-use MIC (MDRAB [2]; strain A11, EA (60% ethanol extract) + TE combined): 32 µg/mL; combined-use MIC (MDRAB [2]; strain A11, EA (95% ethanol extract) + TE combined): 32 µg/mL; combined-use MIC (MDRAB [2]; strain A11, EA (water extract) with TE): 64 µg/mL; combined-use MIC (MDRAB [2]; strain A14, EA (60% ethanol extract) + TE combined): 32 µg/mL; combined-use MIC (MDRAB [2]; strain A14, EA (95% ethanol extract) + TE combined): 32 µg/mL; combined-use MIC (MDRAB [2]; strain A14, EA (water extract) with TE): 32 µg/mL; combined-use MIC (MDRAB [2]; strain A15, EA (60% ethanol extract) + TE combined): 64 µg/mL; combined-use MIC (MDRAB [2]; strain A15, EA (95% ethanol extract) + TE combined): 64 µg/mL; combined-use MIC (MDRAB [2]; strain A15, EA (water extract) with TE): 64 µg/mL; combined-use MIC (MDRAB [2]; strain A16, EA (water extract) with TE): 64 µg/mL; combined-use MIC (MDRAB [2]; strain A17, EA (10% ethanol extract) with TE): 64 µg/mL; combined-use MIC (MDRAB [2]; strain A18, EA (60% ethanol extract) + TE combined): 64 µg/mL; combined-use MIC (MDRAB [2]; strain A19, EA (water extract) with TE): 64 µg/mL; combined-use MIC (MDRAB [2]; strain A20, EA (60% ethanol extract) + TE combined): 32 µg/mL; combined-use MIC (MDRAB [2]; strain A20, EA (95% ethanol extract) + TE combined): 32 µg/mL; combined-use MIC (MDRAB [2]; strain A20, EA (water extract) with TE): 64 µg/mL; MIC (ATCC27853; EA=10% ethanol extract): 8 µg/mL (≈ 18 µM); MIC (ATCC27853; EA=60% ethanol extract): 8 µg/mL (≈ 18 µM); MIC (ATCC27853; EA=95% ethanol extract): 8 µg/mL (≈ 18 µM); MIC (ATCC27853; EA=water extract): 8 µg/mL (≈ 18 µM)

From patent US11793849B2, “Method of Chinese herbal medicine extract used for treating multiple diseases caused by drug resistant bacteria infection” (priority 2016, dated 2023)
